In paper PMC5085647:

Key:
porcine liver APEH = target: T1, porcine liver APEH (Sus scrofa, UniProt P19205); experiment: APEH inhibition in cell-free assay (Ac-Ala-pNA substrate); format: biochemical; conditions: Figure S1A
T1 sequence (P19205 1-732): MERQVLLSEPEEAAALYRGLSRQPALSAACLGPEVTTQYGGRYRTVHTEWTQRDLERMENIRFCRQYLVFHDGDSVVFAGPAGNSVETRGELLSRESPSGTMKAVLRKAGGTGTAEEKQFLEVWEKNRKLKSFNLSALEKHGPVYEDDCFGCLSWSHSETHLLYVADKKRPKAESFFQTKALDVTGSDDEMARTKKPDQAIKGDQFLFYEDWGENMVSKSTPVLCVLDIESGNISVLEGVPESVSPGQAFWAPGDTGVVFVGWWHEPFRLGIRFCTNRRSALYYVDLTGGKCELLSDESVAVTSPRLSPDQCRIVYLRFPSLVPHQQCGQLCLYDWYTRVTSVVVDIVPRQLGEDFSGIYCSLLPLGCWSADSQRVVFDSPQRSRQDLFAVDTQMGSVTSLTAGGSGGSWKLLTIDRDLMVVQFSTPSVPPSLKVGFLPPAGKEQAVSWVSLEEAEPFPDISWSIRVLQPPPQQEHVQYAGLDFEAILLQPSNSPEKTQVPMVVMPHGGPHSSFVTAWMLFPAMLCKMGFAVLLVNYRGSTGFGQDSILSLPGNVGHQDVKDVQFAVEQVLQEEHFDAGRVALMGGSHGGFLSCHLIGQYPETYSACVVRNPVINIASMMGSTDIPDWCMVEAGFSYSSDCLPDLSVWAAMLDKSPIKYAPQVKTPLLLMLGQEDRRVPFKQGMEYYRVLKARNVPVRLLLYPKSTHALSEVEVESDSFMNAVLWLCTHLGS
Protocol: APEH activity was measured spectrophotometrically using the chromogenic substrate Ac-Ala-pNA (Bachem, Laufelfingen, Switzerland). […] APEH activity was expressed in IU. […] Mixtures were pre-incubated for 30 min at 37 °C before addition of the substrate, and the enzymatic activities were followed as described above. […] Enzymes incubated without inhibitors were used as controls.

U2OS cells = experiment: LDH release cytotoxicity assay; format: cell-based, human; conditions: BTZ 10 nM, positive control, n = 3
Protocol: The release of LDH (Lactate dehydrogenase) was used as a marker for cell toxicity. After treatment with 50 and 100 µM SsCEI 4 for 24 h, cleared supernatants were incubated with reaction buffer for 30 min at room temperature according to the manufacturer instructions (ab65393, LDH-Cytotoxicity Assay Kit II). Absorbance was measured at 490 nm and the cytotoxicity percentage was calculated as: [(Absorbancetest sample − Absorbancelow control)/(Absorbancehigh control − Absorbancelow control) × 100].

[1] = system: Beclin-1 and LC3-II in U2OS cells; experiment: Autophagy markers Beclin-1 and LC3-I/LC3-II (Western blot); format: cell-based, human; conditions: Quercetin for 2 h and overnight
Protocol: For Western blotting analysis, protein aliquots (30 µg/lane) were run on SDS-PAGE (8% or 12.5%) and then electroblotted onto PVDF membranes (ImmobilonTM, Millipore, Milan, Italy). Membranes were next incubated with the specific primary antibodies (1 h at room temperature) and then incubated with the appropriate dilution of secondary antibodies (1 h at room temperature). Immunocomplexes were visualized by enhanced chemiluminescence and autoradiography according to the manufacturer protocol (Santa Cruz Biotechnology) and quantified by densitometric analysis with Image J software (NIH, Bethesda, […], USA), using the β-actin and Vinculin levels as loading control for normalization.
Figure S3. […] (A, left panel)
U2OS cells were treated with DMSO (C) or SsCEI 4 (50 and 100 µM) for 72 h. Then, cell lysates were […]
harvested and subjected to immunoblotting for Beclin-1; (A, right panel) Results of densitometry of […]
Beclin-1 bands are expressed as the mean of relationships between densitometries of Beclin-1 and […]
β-actin bands, used as loading control; (B) U2OS cells were treated with DMSO (C) or SsCEI 4 (50 […]
and 100 µM) for 72 h, and cell lysates were used to analyze LC3-II conversion by immunoblotting […]
using the specific antibody against LC3, which is able to recognize both the upper LC3-I band and […]
the lower LC3-II. […]

| Compound | Effect toward APEH activity (porcine liver APEH) | Cytotoxicity (LDH release in culture medium) (U2OS cells) | Beclin-1 and LC3-II levels (autophagy), positive control [1] |
| --- | --- | --- | --- |
| CC(C)C[C@H](NC(=O)[C@H](Cc1ccccc1)NC(=O)c1cnccn1)B(O)O [Bortezomib] | completely ineffective | exceeding 200% | – |
| O=c1c(O)c(-c2ccc(O)c(O)c2)oc2cc(O)cc(O)c12 [Quercetin] | – | – | strongly induced |
